Measured values reported in paper PMC7093416, “Selective USP7 inhibition elicits cancer cell killing through a p53-dependent mechanism” (Scientific Reports, 2020).

Test system: panel of 484 cancer cell lines
Experiment: PRISM cancer cell line profiling, 5 days
Type: cell-based
Parameters: AUC: unit not given beside the values
Method: Cancer cell line profiling was performed using the Broad’s PRISM platform. Cell treatment and data analysis were performed as described in Yu et al[42]. Raw Luminex signal was converted to AUC values for each cell line as described. The resulting AUC profile for each compound was modeled against DepMap using the limma package in R[71]. Because hotspot mutation analysis was performed against DepMap, TP53 annotations in Fig. 6c,d are directly from DepMap.

CN1CCN(CCC(=O)Nc2ccc3c(=O)n(CC4(O)CCN(C(=O)[C@H](CCCNC(=O)c5ccc6c(Cl)c7c(nc6c5)CCCC7)Cc5ccccc5)CC4)cnc3c2)CC1 [XL177B]
AUC (RT112_URINARY_TRACT): 0.9816
AUC (RVH421_SKIN): 0.8995
AUC (S117_SOFT_TISSUE): 0.9955
AUC (SBC5_LUNG): 1.053
AUC (SCABER_URINARY_TRACT): 1.101
AUC (SCC25_UPPER_AERODIGESTIVE_TRACT): 0.9004
AUC (SF126_CENTRAL_NERVOUS_SYSTEM): 0.9271
AUC (SF295_CENTRAL_NERVOUS_SYSTEM): 1.235
AUC (SF539_CENTRAL_NERVOUS_SYSTEM): 0.9498
AUC (SH4_SKIN): 0.9224
AUC (SH10TC_STOMACH): 1.086
AUC (SIMA_AUTONOMIC_GANGLIA): 1.191
AUC (SJSA1_BONE): 1.13
AUC (SKES1_BONE): 0.9809
AUC (SKHEP1_LIVER): 0.9481
AUC (SKLU1_LUNG): 1.195
AUC (SKMEL2_SKIN): 0.945
AUC (SKMEL3_SKIN): 1.224
AUC (SKMEL5_SKIN): 1.137
AUC (SKMEL24_SKIN): 1.275
AUC (SKMEL30_SKIN): 1.1049
AUC (SKMES1_LUNG): 1.035
AUC (SKNAS_AUTONOMIC_GANGLIA): 1.162
AUC (SKNBE2_AUTONOMIC_GANGLIA): 0.9661
AUC (SKOV3_OVARY): 1.113
AUC (SKUT1_SOFT_TISSUE): 1.098
AUC (SNB75_CENTRAL_NERVOUS_SYSTEM): 1.029
AUC (SNGM_ENDOMETRIUM): 1.214
AUC (SNU46_UPPER_AERODIGESTIVE_TRACT): 1.023
AUC (SNU61_LARGE_INTESTINE): 1.357
AUC (SNU81_LARGE_INTESTINE): 1.469
AUC (SNU213_PANCREAS): 0.9253
AUC (SNU245_BILIARY_TRACT): 1.172
AUC (SNU308_BILIARY_TRACT): 1.2193
AUC (SNU398_LIVER): 1.038
AUC (SNU407_LARGE_INTESTINE): 0.8767
AUC (SNU410_PANCREAS): 1.127
AUC (SNU423_LIVER): 1.115
AUC (SNU449_LIVER): 0.9807
AUC (SNU466_CENTRAL_NERVOUS_SYSTEM): 0.8672
AUC (SNU601_STOMACH): 1.056
AUC (SNU668_STOMACH): 0.9502
AUC (SNU685_ENDOMETRIUM): 0.9823
AUC (SNU719_STOMACH): 1.037
AUC (SNU738_CENTRAL_NERVOUS_SYSTEM): 1.115
AUC (SNU761_LIVER): 1.164
AUC (SNU840_OVARY): 1.115
AUC (SNU869_BILIARY_TRACT): 1.118
AUC (SNU886_LIVER): 1.231
AUC (SNU1041_UPPER_AERODIGESTIVE_TRACT): 1.134
AUC (SNU1066_UPPER_AERODIGESTIVE_TRACT): 1.18
AUC (SNU1076_UPPER_AERODIGESTIVE_TRACT): 0.9825
AUC (SNU1077_ENDOMETRIUM): 1.083
AUC (SNU1079_BILIARY_TRACT): 1.166
AUC (SNU1105_CENTRAL_NERVOUS_SYSTEM): 1.105
AUC (SNU1196_BILIARY_TRACT): 1.09
AUC (SNU1214_UPPER_AERODIGESTIVE_TRACT): 0.9564
AUC (SNUC2A_LARGE_INTESTINE): 1.042
AUC (SNUC4_LARGE_INTESTINE): 1.117
AUC (SNUC5_LARGE_INTESTINE): 1.097
AUC (SQ1_LUNG): 1.099
AUC (SUIT2_PANCREAS): 1.021
AUC (SW480_LARGE_INTESTINE): 1.084
AUC (SW579_THYROID): 1.209
AUC (SW620_LARGE_INTESTINE): 1.165
AUC (SW780_URINARY_TRACT): 1.236
AUC (SW837_LARGE_INTESTINE): 1.0717
AUC (SW900_LUNG): 1.235
AUC (SW948_LARGE_INTESTINE): 1.132
AUC (SW1088_CENTRAL_NERVOUS_SYSTEM): 1.121
AUC (SW1271_LUNG): 1.015
AUC (SW1353_BONE): 0.6793
AUC (SW1573_LUNG): 1.097
AUC (SW1710_URINARY_TRACT): 1.102
AUC (SW1990_PANCREAS): 1.083
AUC (T3M10_LUNG): 1.12
AUC (T24_URINARY_TRACT): 1.071
AUC (T47D_BREAST): 1.066
AUC (T98G_CENTRAL_NERVOUS_SYSTEM): 0.9969
AUC (TCCPAN2_PANCREAS): 1.118
AUC (TCCSUP_URINARY_TRACT): 1.104
AUC (TE1_OESOPHAGUS): 1.328
AUC (TE4_OESOPHAGUS): 1.033
AUC (TE5_OESOPHAGUS): 0.9565
AUC (TE6_OESOPHAGUS): 1.06
AUC (TE8_OESOPHAGUS): 0.9218
AUC (TE9_OESOPHAGUS): 1.298
AUC (TE10_OESOPHAGUS): 0.9856
AUC (TE11_OESOPHAGUS): 1.076
AUC (TEN_ENDOMETRIUM): 0.9874
AUC (TM31_CENTRAL_NERVOUS_SYSTEM): 1.105
AUC (TM87_SOFT_TISSUE): 1.039
AUC (TOV21G_OVARY): 0.7718
AUC (TOV112D_OVARY): 0.9778
AUC (TT2609C02_THYROID): 1.023
AUC (TT_OESOPHAGUS): 1.189
AUC (TT_THYROID): 0.9532
AUC (TUHR4TKB_KIDNEY): 1.093
AUC (U2OS_BONE): 1.264
AUC (U118MG_CENTRAL_NERVOUS_SYSTEM): 1.3332
AUC (U251MG_CENTRAL_NERVOUS_SYSTEM): 1.04
AUC (UACC62_SKIN): 0.9925
AUC (UACC257_SKIN): 0.9688
AUC (UBLC1_URINARY_TRACT): 1.0896
AUC (UMUC1_URINARY_TRACT): 1.045
AUC (UO31_KIDNEY): 1.143
AUC (VMCUB1_URINARY_TRACT): 0.9508
AUC (VMRCRCW_KIDNEY): 1.069
AUC (VMRCRCZ_KIDNEY): 1.083
AUC (WM88_SKIN): 1.093
AUC (WM793_SKIN): 1.133
AUC (WM983B_SKIN): 1.143
AUC (WM1799_SKIN): 0.7611
AUC (WM2664_SKIN): 1.168
AUC (YAPC_PANCREAS): 1.439
AUC (YD8_UPPER_AERODIGESTIVE_TRACT): 1.127
AUC (YD10B_UPPER_AERODIGESTIVE_TRACT): 0.9769
AUC (YD15_SALIVARY_GLAND): 0.9723
AUC (YD38_UPPER_AERODIGESTIVE_TRACT): 1.117
AUC (YH13_CENTRAL_NERVOUS_SYSTEM): 1.068
AUC (YKG1_CENTRAL_NERVOUS_SYSTEM): 1.107
AUC (ZR751_BREAST): 0.9538
